Test results: patent publication US7358276B2, “2-Oxo-1-pyrrolidine derivatives, processes for preparing them and their uses” (UCB, S.A., priority 2000, dated 2008)

Legend:
[1] = test system: audiogenic seizures in sound-susceptible mice; assay: Animal model of sound-susceptible mice (audiogenic seizures); assay type: in vivo; conditions: intraperitoneally 60 minutes before induction of audiogenic seizures; doses given in mol/kg
From the text: The activity of the compounds of formula I, or their pharmaceutically acceptable salts, as anticonvulsants can be determined in the audiogenic seizures model. The objective of this test is to evaluate the anticonvulsant potential of a compound by means of audiogenic seizures induced in sound-susceptible mice, a genetic animal model with reflex seizures. In this model of primary generalised epilepsy, seizures are evoked without electrical or chemical stimulation and the seizure types are, at least in part, similar in their clinical phenomenology to seizures occurring in man (Löscher W. & Schmidt D., Epilepsy Res. (1998), 2, p. 145-181; Buchhalter J. R., Epilepsia (1993), 34, S31-S41). Results obtained with compounds of formula I are indicative of a strong pharmacological effect.
The objective of this test is to evaluate the anticonvulsant potency of a compound in sound-susceptible mice, a genetic animal model with reflex seizures. In this model of primary generalised epilepsy, seizures are evoked without electrical or chemical stimulation and the seizure types are, at least in part, similar in their clinical phenomenology to seizures occuring in man (Löscher W. & Schmidt D., Epilepsy Res. (1998), 2, 145-181; Buchhalter J. R., Epilepsia (1993), 34, S31-S41).
Male or female genetically sound-sensitive mice (14-28 g; N=10), derived from a DBA strain originally selected by Dr. Lehmann of the Laboratory of Acoustic Physiology (Paris) and bred in the UCB Pharma Sector husbandry unit since 1978, are used. The experimental design consisted of several groups, one group receiving the vehicle control and the other groups different doses of the test-compound. The compounds are administered intraperitoneally 60 minutes before the induction of audiogenic seizures.
For testing, the animals are placed in small cages, one mouse per cage, in a sound-attenuated chamber. After a period of orientation of 30 seconds, the acoustic stimulus (90 dB, 10-20 kHz) is delivered for 30 seconds via loudspeakers positioned above each cage. During this interval, the mice are observed and the presence of the 3 phases of the seizure activity namely wild running, clonic and tonic convulsions, is recorded. The proportion of mice protected against wild running, clonic and tonic convulsions, respectively, is calculated.
For active compounds, an ED50 value, i.e. the dose producing 50% protection relative to the control group, together with 95% confidence limits, was calculated using a Probit Analysis (SAS/STAT® Software, version 6.09, PROBIT procedure) of the proportions of protected mice for each of the 3 phases of the seizure activity.

[2] = target: T1, Levetiracetam Binding Site (LBS), rat cerebral cortex membranes (Rattus norvegicus, UniProt Q02563); assay: LBS binding assay (competitive binding, [3H]-2-[4-(3-azidophenyl)-2-oxo-1-pyrrolidinyl]butanamide); conditions: 4° C., 120 min
T1 construct: The crude membrane pellet obtained is resuspended in 50 mmol/l Tris-HCl (pH 7.4); from tissue; host or cells: rat cerebral cortex crude membranes (male Sprague-Dawley)
T1 sequence (Q02563 whole entry): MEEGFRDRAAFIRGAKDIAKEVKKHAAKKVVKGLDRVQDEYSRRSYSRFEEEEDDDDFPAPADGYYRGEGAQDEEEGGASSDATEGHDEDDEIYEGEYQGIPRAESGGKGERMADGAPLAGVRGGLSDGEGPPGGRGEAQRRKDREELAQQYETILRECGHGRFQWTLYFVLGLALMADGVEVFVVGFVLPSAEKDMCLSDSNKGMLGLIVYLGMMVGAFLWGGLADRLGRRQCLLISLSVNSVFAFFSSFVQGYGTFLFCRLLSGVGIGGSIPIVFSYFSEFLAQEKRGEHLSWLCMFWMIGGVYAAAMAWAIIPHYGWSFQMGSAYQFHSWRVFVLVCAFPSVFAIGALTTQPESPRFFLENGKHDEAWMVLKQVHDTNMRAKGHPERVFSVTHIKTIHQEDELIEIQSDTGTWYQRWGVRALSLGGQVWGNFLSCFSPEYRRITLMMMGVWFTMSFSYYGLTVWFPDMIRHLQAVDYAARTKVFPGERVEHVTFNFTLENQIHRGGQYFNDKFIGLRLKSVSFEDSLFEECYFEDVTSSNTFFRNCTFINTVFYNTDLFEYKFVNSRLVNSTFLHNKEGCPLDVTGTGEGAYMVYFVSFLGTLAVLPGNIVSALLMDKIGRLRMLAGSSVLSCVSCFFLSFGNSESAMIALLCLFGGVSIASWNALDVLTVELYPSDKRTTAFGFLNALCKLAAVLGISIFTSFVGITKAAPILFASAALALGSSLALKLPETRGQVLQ

In the case of “2-[4-(2,2-dibromovinyl)-2-oxo-1-pyrrolidinyl]butanamide [Compound 47]”, the “ED50 (dose producing 50% protection against audiogenic seizures)” value [1] is reported as “Particularly promising activity” and the “pKi (affinity for the levetiracetam binding site)” value (“pKi” for short) [2] is reported as “Particular affinity”.
With `CCCC(CN[C@@H](CC)C(N)=O)CC(=O)OCCC12CC3CC(CC(C3)C1)C2.Cl` (mixture of isomers) [AA 3, 2-(1-adamantyl)ethyl 3-({[(1S)-1-(aminocarbonyl)propyl]amino}methyl)hexanoate hydrochloride] the “ED50 (dose producing 50% protection against audiogenic seizures)” value [1] was “Particularly promising activity”.
With `CCCCOC(=O)CC(CCC)CN[C@@H](CC)C(N)=O.Cl` (mixture of isomers) [AA 4, butyl 3-({[(1S)-1-(aminocarbonyl)propyl]amino}methyl)hexanoate hydrochloride] the “ED50 (dose producing 50% protection against audiogenic seizures)” value [1] was “Particularly promising activity”.
In the case of `CCCC(CN[C@@H](CC)C(N)=O)CC(=O)OC(C)C.Cl` (mixture of isomers) [AA 5, isopropyl 3-({[(1S)-1-(aminocarbonyl)propyl]amino}methyl)hexanoate hydrochloride], the “ED50 (dose producing 50% protection against audiogenic seizures)” value [1] is reported as “Particularly promising activity”.
For `CCCC1CC(=O)N([C@@H](CC)C(N)=O)C1` (single isomer, unassigned) [Compound 158], the “ED50 (dose producing 50% protection against audiogenic seizures)” value [1] was “Particularly promising activity” and the “pKi” value [2] was “Particular affinity”.
In the case of `CCCC1CC(=O)N([C@@H](CC)C(N)=O)C1` (single isomer, unassigned) [Compound 159], the “ED50 (dose producing 50% protection against audiogenic seizures)” value [1] is reported as “Particularly promising activity” and the “pKi” value [2] is reported as “Particular affinity”.
With `CC[C@@H](C(N)=O)N1CC(n2cccc2)CC1=O` (single isomer, unassigned) [Compound 223, 4-pyrol-pyrrolidin-2-one] the “ED50 (dose producing 50% protection against audiogenic seizures)” value [1] was “Particularly promising activity” and the “pKi” value [2] was “Particular affinity”.
In the case of `CCCC(CN[C@@H](CC)C(N)=O)CC(=O)OCC.Cl` (stereo partly drawn) [AA 1, ethyl 3-({[(1S)-1-(aminocarbonyl)propyl]amino}methyl)hexanoate hydrochloride], the “ED50 (dose producing 50% protection against audiogenic seizures)” value [1] is reported as “Particularly promising activity”.
For `CCCC(CN[C@@H](CC)C(N)=O)CC(=O)OCC.Cl` (stereo partly drawn) [AA 2, ethyl 3-({[(1S)-1-(aminocarbonyl)propyl]amino}methyl)hexanoate hydrochloride], the “ED50 (dose producing 50% protection against audiogenic seizures)” value [1] was “Particularly promising activity”.
For `CC[C@@H](C(N)=O)N1CC(CBr)CC1=O` (stereo partly drawn) [Compound 8, (2S)-2-[4-(bromomethyl)-2-oxo-1-pyrrolidinyl]butanamide], the “pKi” value [2] was “Particular affinity”.
For `CC[C@@H](C(N)=O)N1CC(CBr)CC1=O` (stereo partly drawn) [Compound 9], the “ED50 (dose producing 50% protection against audiogenic seizures)” value [1] was “Particularly promising activity” and the “pKi” value [2] was “Particular affinity”.
In the case of `CC[C@@H](C(N)=O)N1CC(CCl)CC1=O` (stereo partly drawn) [Compound 30, (2S)-2-[4-(chloromethyl)-2-oxo-1-pyrrolidinyl]butanamide], the “pKi” value [2] is reported as “Particular affinity”.
For `CC[C@@H](C(N)=O)N1CC(COS(=O)(=O)c2ccc(C)cc2)CC1=O` (stereo partly drawn) [Compound 31, {1-[(1S)-1-(aminocarbonyl)propyl]-5-oxo-3-pyrrolidinyl}methyl 4-methylbenzenesulfonate], the “pKi” value [2] was “Particular affinity”.
For `CC[C@@H](C(N)=O)N1CC(CO[N+](=O)[O-])CC1=O` (stereo partly drawn) [Compound 38, {1-[(1S)-1-(aminocarbonyl)propyl]-5-oxo-3-pyrrolidinyl}methyl Nitrate], the “pKi” value [2] was “Particular affinity”.
In the case of `CCC(C(N)=O)N1CC(CS(=O)(=O)c2ccccc2)CC1=O` (stereo not drawn) [Compound 43], the “pKi” value [2] is reported as “Particular affinity”.
In the case of `CC[C@@H](C(N)=O)N1CC(CN=C=S)CC1=O` (stereo partly drawn) [Compound 49, (2S)-2-[4-(isothiocyanatomethyl)-2-oxo-1-pyrrolidinyl]butanamide], the “pKi” value [2] is reported as “Particular affinity”.
With `CC[C@@H](C(N)=O)N1CC(c2cccs2)CC1=O` (stereo partly drawn) [Compound 72, (2S)-2-[2-oxo-4-(2-thienyl)-1-pyrrolidinyl]butanamide] the “pKi” value [2] was “Particular affinity”.
For `CC[C@@H](C(N)=O)N1CC(c2ccsc2)CC1=O` (stereo partly drawn) [Compound 88], the “ED50 (dose producing 50% protection against audiogenic seizures)” value [1] was “Particularly promising activity” and the “pKi” value [2] was “Particular affinity”.
For `CC[C@@H](C(N)=O)N1CC(c2ccc(-c3ccccc3)cc2)CC1=O` (stereo partly drawn) [Compound 98], the “pKi” value [2] was “Particular affinity”.
`CC[C@@H](C(N)=O)N1CC(CSC)CC1=O` (stereo partly drawn) [Compound 100] was tested, and the “ED50 (dose producing 50% protection against audiogenic seizures)” value [1] was “Particularly promising activity” and the “pKi” value [2] was “Particular affinity”.
With `CCCC1CC(=O)N(C(C)C(N)=O)C1` (stereo not drawn) [Compound 119] the “pKi” value [2] was “Particular affinity”.
For `CCCC1CC(=O)N(C(CC)C(N)=O)C1` (stereo not drawn) [Compound 127, 2-(2-oxo-4-propyl-1-pyrrolidinyl)butanamide], the “pKi” value [2] was “Particular affinity”.
In the case of `CCCCCC1CC(=O)N(C(CC)C(N)=O)C1` (stereo not drawn) [Compound 142], the “pKi” value [2] is reported as “Particular affinity”.
In the case of `CC[C@@H](C(N)=O)N1CC(CC(C)(C)C)CC1=O` (stereo partly drawn) [Compound 149, (2S)-2-(4-neopentyl-2-oxo-1-pyrrolidinyl)butanamide], the “pKi” value [2] is reported as “Particular affinity”.
In the case of `CCC1CC(=O)N([C@@H](CC)C(N)=O)C1` (stereo partly drawn) [Compound 151], the “ED50 (dose producing 50% protection against audiogenic seizures)” value [1] is reported as “Particularly promising activity” and the “pKi” value [2] is reported as “Particular affinity”.
`CCC1CC(=O)N([C@@H](CC)C(N)=O)C1` (stereo partly drawn) [Compound 152] was tested, and the “ED50 (dose producing 50% protection against audiogenic seizures)” value [1] was “Particularly promising activity” and the “pKi” value [2] was “Particular affinity”.
`CCC(C(N)=O)N1CC(CC(F)F)CC1=O` (stereo not drawn) [Compound 157, 2-[4-(2,2-difluoroethyl)-2-oxo-1-pyrrolidinyl]butanamide] was tested, and the “pKi” value [2] was “Particular affinity”.
In the case of `CCC(C(N)=O)N1CC(C=C(C)C)CC1=O` (stereo not drawn) [Compound 163, 2-(2-oxo-4-(2,2-dimethylvinyl)-1-pyrrolidinyl)butanamide], the “pKi” value [2] is reported as “Particular affinity”.
With `CCC(C(N)=O)N1CC(c2ccc(Cl)cc2)CC1=O` (stereo not drawn) [Compound 169] the “pKi” value [2] was “Particular affinity”.
In the case of `CCC(C(N)=O)N1CC(c2cccc(Cl)c2)CC1=O` (stereo not drawn) [Compound 170], the “pKi” value [2] is reported as “Particular affinity”.
With `CCC(C(N)=O)N1CC(c2ccccc2C(F)(F)F)CC1=O` (stereo not drawn) [Compound 171] the “pKi” value [2] was “Particular affinity”.
For `CCC(C(N)=O)N1CC(c2ccccc2F)CC1=O` (stereo not drawn) [Compound 173], the “pKi” value [2] was “Particular affinity”.
`CCC(C(N)=O)N1CC(c2cccc(C)c2)CC1=O` (stereo not drawn) [Compound 174] was tested, and the “pKi” value [2] was “Particular affinity”.
With `CCC(C(N)=O)N1CC(c2cccc(Cl)c2)CC1=O` (stereo not drawn) [Compound 204, 2-[4-(3-chlorophenyl)-2-oxo-1-pyrrolidinyl]butanamide] the “pKi” value [2] was “Particular affinity”.
For `CCC(C(N)=O)N1CC(c2cccc(Cl)c2)CC1=O` (stereo not drawn) [Compound 205, 2-[4-(3-chlorophenyl)-2-oxo-1-pyrrolidinyl]butanamide], the “pKi” value [2] was “Particular affinity”.
For `C#CC1CC(=O)N(C(CC)C(N)=O)C1` (stereo not drawn) [Compound 207, 2-(4-ethynyl-2-oxo-1-pyrrolidinyl)butanamide], the “pKi” value [2] was “Particular affinity”.
With `CC[C@@H](C(N)=O)N1CC(CC(C)I)CC1=O` (stereo partly drawn) [Compound 225, (2S)-2-[4-(2-iodopropyl)-2-oxo-1-pyrrolidinyl]butanamide] the “pKi” value [2] was “Particular affinity”.
In the case of `CC[C@@H](C(N)=O)N1CC(CC(C)I)CC1=O` (stereo partly drawn) [Compound 226, (2S)-2-[4-(2-iodopropyl)-2-oxo-1-pyrrolidinyl]butanamide], the “pKi” value [2] is reported as “Particular affinity”.
In the case of `CCCC1CC(=O)N(C(CCC)C(N)=O)C1` (stereo not drawn) [Compound 304], the “pKi” value [2] is reported as “Particular affinity”.
For `CCCC1CC(=O)N(C(CC2CC2)C(N)=O)C1` (stereo not drawn) [Compound 306], the “pKi” value [2] was “Particular affinity”.
`CCCC1CC(=O)N(C(Cc2cscn2)C(N)=O)C1` (stereo not drawn) [Compound 350] was tested, and the “pKi” value [2] was “Particular affinity”.
With `C=CCC(C(N)=O)N1CC(CCC)CC1=O` (stereo not drawn) [Compound 351] the “pKi” value [2] was “Particular affinity”.
